According to US20240174618A1, “SUBSTITUTED (2-HETEROARYLOXYPHENYL)SULFONATES, SALTS THEREOF AND THEIR USE AS HERBICIDAL AGENTS” (Bayer Aktiengesellschaft, priority 2021, published 2024):

Legend:
Format in all cases: in vivo
Stellaria media (STEME) = assay: A. Herbicidal pre-emergence efficacy, STEME
Method in brief: (§1)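 Applied before emergence onto covering soil at rates of 1280 g/ha or less, using 600 L/ha spray water with 0.5% additive. Scoring: visual % efficacy after ~3 weeks, greenhouse.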

[1] = system: Digitaria sanguinalis (DIGSA); assay: B. Herbicidal post-emergence efficacy, DIGSA; details: rated visually after about 3 weeks
Method in brief: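 First, seeds were sown in sandy loam and grown 2 to 3 weeks under controlled greenhouse conditions. Next, foliage at the one-leaf stage received the formulated compound in water with 0.5% additive (600 L/ha, 1280 g/ha or less). Finally, damage was rated visually after about 3 weeks against untreated plants.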

Poa annua (POAAN) = assay: A. Herbicidal pre-emergence efficacy, POAAN
Method in brief: as §1

Setaria viridis (SETVI) = assay: E. Herbicidal post-emergence efficacy, SETVI
Experimental: Seeds of monocotyledonous and dicotyledonous weeds and crop plants were placed in sandy loam in plastic or organic planting pots, covered with soil and cultivated in a greenhouse under controlled growth conditions. 2 to 3 weeks after sowing, the test plants were treated at the one-leaf stage. The compounds of the invention, formulated in the form of wettable powders (WP) or as emulsion concentrates (EC), were then sprayed onto the green parts of the plants as aqueous suspension or emulsion with addition of 0.5% additive at a water application rate of 600 l/ha (converted). After the test plants had been kept in the greenhouse under optimum growth conditions for about 3 weeks, the activity of the preparations was rated visually in comparison to untreated controls.
For example, • 100% efficacy=plants have died, • 0% action=like untreated control plants.
Tables E1a to E12b below show the effects of selected compounds of the general formula (I) according to table 1 on various harmful plants at an application rate corresponding to 320 g/ha or less, which were obtained by the experimental procedure mentioned above.

Veronica persica (VERPE) = assay: C. Herbicidal pre-emergence efficacy, VERPE; details: scored after about 3 weeks
Method in brief: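 Pre-emergence test: formulated compounds sprayed as aqueous suspension or emulsion with 0.5% additive at 600 l/ha onto soil covering sown seeds, at rates corresponding to 320 g/ha or less. After about 3 weeks in greenhouse, efficacy scored visually as percent versus untreated controls (100% = plants dead).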

Viola tricolor (VIOTR) = assay: E. Herbicidal post-emergence efficacy, VIOTR
Method in brief: (§2)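 Visual scoring against untreated plants was done roughly 3 weeks after spraying (0% = no effect, 100% = plants dead). Spray application at 320 g/ha or lower, 600 l/ha water with 0.5% additive, was made onto green parts of one-leaf-stage greenhouse plants grown 2-3 weeks in sandy loam.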

[2] = system: Abutilon theophrasti (ABUTH); assay: E. Herbicidal post-emergence efficacy, ABUTH
Method in brief: as §2

[3] = system: Echinochloa crus-galli (ECHCG); assay: E. Herbicidal post-emergence efficacy, ECHCG
Method in brief: as §2

Structure (SMILES) | Pre-emergence efficacy against STEME (Stellaria media (STEME); dosage 80 g/ha) [%] | Pre-emergence efficacy against STEME (Stellaria media (STEME); dosage 320 g/ha) [%] | Pre-emergence efficacy against STEME (Stellaria media (STEME); dosage 1280 g/ha) [%] | Post-emergence efficacy against DIGSA in % ([1]; 1280 g/ha) [%] | Pre-emergence efficacy against POAAN (Poa annua (POAAN); dosage 80 g/ha) [%] | Pre-emergence efficacy against POAAN (Poa annua (POAAN); dosage 320 g/ha) [%] | Pre-emergence efficacy against POAAN (Poa annua (POAAN); dosage 1280 g/ha) [%] | Post-emergence efficacy against SETVI in % (Setaria viridis (SETVI); application rate 80 g/ha) [%] | Post-emergence efficacy against SETVI in % (Setaria viridis (SETVI); application rate 320 g/ha) [%] | Pre-emergence efficacy against VERPE (Veronica persica (VERPE); 80 g/ha) [%] | Pre-emergence efficacy against VERPE (Veronica persica (VERPE); 320 g/ha) [%] | Post-emergence efficacy against VIOTR in % (Viola tricolor (VIOTR); application rate 80 g/ha) [%] | Post-emergence efficacy against VIOTR in % (Viola tricolor (VIOTR); application rate 320 g/ha) [%] | Post-emergence efficacy against ABUTH in % ([2]; application rate 80 g/ha) [%] | Post-emergence efficacy against ABUTH in % ([2]; application rate 320 g/ha) [%] | Post-emergence efficacy against ECHCG in % ([3]; application rate 80 g/ha) [%] | Post-emergence efficacy against ECHCG in % ([3]; application rate 320 g/ha) [%] | Post-emergence efficacy against DIGSA in % ([1]; 320 g/ha) [%]
Cc1cccc(Oc2ncc(Cl)cn2)c1OS(=O)(=O)CCC(F)(F)F [Example I-29] | 90 | 100 | 100 | 100 | 90 | 100 | 100 |  |  |  |  |  |  |  |  |  |  | 
O=S(=O)(CCCC(F)(F)F)Oc1c(Br)cccc1Oc1ncc(Cl)cn1 [Example I-30] | 100 | 100 | 100 | 90 | 90 | 100 | 100 |  |  |  |  |  |  |  |  |  |  | 
O=S(=O)(CCCC(F)(F)F)Oc1ccccc1Oc1ncc(Cl)cn1 [Example I-10] | 100 | 100 | 100 |  | 100 | 100 | 100 | 100 | 100 | 100 | 100 | 90 | 100 | 90 | 100 | 90 | 90 | 
O=S(=O)(CCCCl)Oc1ccccc1Oc1ncc(Cl)cn1 [Example I-2] | 100 | 100 | 100 |  | 100 | 100 | 100 | 100 | 100 | 90 | 100 |  | 100 |  | 100 |  | 100 | 
CCCCS(=O)(=O)Oc1ccccc1Oc1ncc(Cl)cn1 [Example I-6] | 100 | 100 | 100 |  |  | 90 | 90 | 90 | 100 | 80 | 90 | 80 | 90 | 80 | 90 | 90 | 100 | 
O=S(=O)(CCCCl)Oc1ccccc1Oc1ncc(F)cn1 [Example I-5] | 90 | 100 | 100 |  | 90 | 100 | 100 | 90 | 100 | 100 | 100 | 80 | 90 |  | 90 | 80 | 100 | 
O=S(=O)(CCCCCl)Oc1ccccc1Oc1ncc(Cl)cn1 [Example I-15] | 100 | 100 | 100 |  | 100 | 100 | 100 | 80 | 100 |  | 80 | 90 | 100 |  | 80 |  | 80 | 
Cc1cccc(OS(=O)(=O)CCCCl)c1Oc1ncc(Cl)cn1 [Example I-12] |  | 100 | 100 |  |  | 100 | 100 |  | 90 |  | 90 |  | 80 |  | 90 |  | 90 | 
O=S(=O)(CCC(F)(F)F)Oc1ccccc1Oc1ncc(Cl)cn1 [Example I-8] | 100 | 100 | 100 |  | 90 | 100 | 100 | 90 | 90 | 100 | 100 | 80 | 100 | 90 | 100 | 90 | 90 | 
Cc1cccc(Oc2ncc(Cl)cn2)c1OS(=O)(=O)CCCC(F)(F)F [Example I-28, 2-[(5-Chloropyrimidin-2-yl)oxy]-6-methylphenyl 4,4,4-trifluorobutane-1-sulfonate] | 90 | 100 | 100 | 90 | 90 | 100 | 100 |  |  |  |  |  |  |  |  |  |  | 
CCCS(=O)(=O)Oc1ccccc1Oc1ncc(Cl)cn1 [Example I-3] | 100 | 100 | 100 |  | 90 | 100 | 100 |  | 90 |  | 100 |  |  |  |  |  | 90 | 
CC(C)CCS(=O)(=O)Oc1ccccc1Oc1ncc(Cl)cn1 [Example I-25] |  | 90 | 100 | 100 |  | 100 | 100 |  | 100 | 80 | 100 |  |  |  | 80 |  | 100 | 90
O=S(=O)(CCC(F)(F)F)Oc1c(Br)cccc1Oc1ncc(Cl)cn1 [Example I-31] | 90 | 100 | 100 | 90 | 90 | 100 | 100 |  |  |  |  |  |  |  |  |  |  | 
CC(C)CS(=O)(=O)Oc1ccccc1Oc1ncc(Cl)cn1 [Example I-7, [2-(5-Chloropyrimidin-2-yl)oxyphenyl] 2-methylpropane-1-sulfonate] | 90 | 90 | 100 |  | 100 | 100 | 100 | 90 | 100 | 90 | 100 |  | 90 |  | 100 | 80 | 100 | 
O=S(=O)(CCl)Oc1ccccc1Oc1ncc(Cl)cn1 [Example I-9] |  | 100 | 100 |  |  | 90 | 100 |  | 100 |  | 100 |  | 80 | 80 | 80 |  |  | 
O=S(=O)(CCCCl)Oc1cccc(F)c1Oc1ncc(Cl)cn1 [Example I-13] | 100 | 100 | 100 | 90 |  | 90 | 100 |  |  |  | 90 |  |  |  |  |  |  | 
O=S(=O)(CC1CC1(Cl)Cl)Oc1c(F)cccc1Oc1ncc(Cl)cn1 (stereo not shown) [Example I-57] |  | 100 | 100 | 90 |  | 100 | 100 |  |  |  |  |  |  |  |  |  |  | 90
